For 13 compounds, Kd, EC50 and inhibition results are on record in ChEMBL document CHEMBL5523728, “Fragment-Based Discovery of a Series of Allosteric-Binding Site Modulators of β-Glucocerebrosidase” (J Med Chem, 2024).

Calls of active or inactive are those of the source. No cut-off for these calls is given here.

The target of test [1] is T1, Lysosomal acid glucosylceramidase (Homo sapiens, UniProt P04062).
T1 sequence (P04062 whole entry): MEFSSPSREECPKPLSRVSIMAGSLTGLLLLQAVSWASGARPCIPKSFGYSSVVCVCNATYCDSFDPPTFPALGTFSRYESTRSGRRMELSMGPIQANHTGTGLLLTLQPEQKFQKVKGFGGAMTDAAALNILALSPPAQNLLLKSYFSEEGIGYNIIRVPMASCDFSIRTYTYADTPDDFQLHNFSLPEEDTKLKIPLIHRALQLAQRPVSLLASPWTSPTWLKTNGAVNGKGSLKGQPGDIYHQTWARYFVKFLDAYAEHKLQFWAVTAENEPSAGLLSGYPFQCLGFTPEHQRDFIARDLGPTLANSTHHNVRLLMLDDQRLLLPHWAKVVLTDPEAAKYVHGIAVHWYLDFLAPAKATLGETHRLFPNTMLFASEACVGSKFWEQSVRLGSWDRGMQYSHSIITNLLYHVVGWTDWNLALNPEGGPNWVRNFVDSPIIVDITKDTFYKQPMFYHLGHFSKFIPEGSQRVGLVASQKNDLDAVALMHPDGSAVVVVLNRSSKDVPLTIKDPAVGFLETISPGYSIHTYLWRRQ
In words: biochemical.
Description: Binding affinity to human Avi/10-his tagged GCase (40 to 536 residues) expressed baculovirus expression system in Sf9 cells in assessed as dissociation constant by isothermal titration calorimetry analysis

The target in test [2] is T1, Lysosomal acid glucosylceramidase. The test is described as follows: Positive allosteric modulation of GCase in human Fibroblast cells using GBA1-FQ2 as substrate preincubated for 24 hrs followed by substrate addition and measured after 3 hrs by Hoechst 33342 staining based imaging analysis. The format is cell-based.
In test [3] the target is T2, Lysosomal acid glucosylceramidase (Homo sapiens) (UniProt P04062).
T2 sequence (whole entry): T1 sequence (P04062 whole entry)
The conditions noted are these: Fibroblast, dose 0.5 mM, time 27.0 hrs.

What is called Kd is the equilibrium constant for the complex coming apart. As for `CN(CC(F)F)c1cccc([C@@H](N)CN(C)S(=O)(=O)c2cc(F)cc(F)c2)c1`, the Kd in test [1] turned out to be 0.22 µM.
In the case of `CN(C[C@H](N)c1cccc(Cl)c1)S(=O)(=O)c1cc(F)cc(F)c1`, the Kd in test [1] turned out to be 0.25 µM.
Usually EC50 stands for the concentration needed to bring the measured effect to its halfway point. Lower therefore signals greater potency. Regarding `C=C(C)c1cccc([C@@H](N)CN(C)S(=O)(=O)c2cc(F)cc(F)c2)c1`, the Kd in test [1] is 0.05 µM. Further, in test [2], it took 9 µM to reach a half-maximal effect (EC50).
The corresponding values for `CCCOc1cc(F)cc(S(=O)(=O)N(C)C[C@@H](N)c2cccc(N(C)C)c2)c1` are 0.018 µM and 8.9 µM.
With `N[C@H](CNS(=O)(=O)c1cccc(F)c1)c1ccccc1`, the affinity in test [1], expressed as Kd, was 3 µM.
The compound `O=S(=O)(NCC1CC1)c1ccccc1` registered a Kd in test [1] of 410 µM.
Turning to `CN(C[C@@H](N)c1cccc(Br)c1)S(=O)(=O)c1cc(F)cc(F)c1`, the Kd in test [1] was found to be 0.18 µM. Against the preceding compound, the Kd is about 2300-fold lower.
`N[C@H](CNS(=O)(=O)c1cc(F)cc(F)c1)c1ccccc1` gave a Kd in test [1] of 1 µM. This Kd is about 5.6-fold higher than that of the compound before.
On to `O[C@H]1[C@H](O)[C@@H](O)[C@@H]2O[C@@H]2[C@@H]1O`, for which the inhibition result in test [3] was “Active”.
As for `N[C@H](CNS(=O)(=O)c1ccccc1)c1ccccc1`, in test [1], binding was characterised by a dissociation constant (Kd) of 7 µM.
In the case of `c1ccc(CC2CCNCC2)cc1`, the Kd in test [1] came to 19 µM.
Take `Cc1ccc(S(=O)(=O)NCC(C)N)cc1` (racemic): in test [1], the Kd is 100 µM. This Kd is about 5.3-fold higher than that of the compound before.
Consider `NCC(O)CNS(=O)(=O)c1ccccc1F` (racemic), for which the Kd in test [1] is 180 µM.
